Measurements: the NIST ThermoML archive (doi:10.1016/j.fluid.2006.03.015)

Test: molar heat capacity at constant pressure
Settings: 101.33 kPa, Liquid

CCCC[n+]1ccccc1.O=S(=O)([N-]S(=O)(=O)C(F)(F)F)C(F)(F)F [1-butylpyridinium bis[(trifluoromethyl)sulfonyl]imide]
Settings	molar heat capacity at constant pressure [J/K/mol]
323.18 K, Large sample (1 g) DSC	592
328.15 K, modulated-temperature differential scanning calorimetry MDSC	604
328.18 K, Large sample (1 g) DSC	595
330.15 K, Small sample (50 mg) DSC	587
333.13 K, Large sample (1 g) DSC	596
333.15 K, modulated-temperature differential scanning calorimetry MDSC	607
335.15 K, Small sample (50 mg) DSC	590
338.14 K, Large sample (1 g) DSC	600
338.15 K, modulated-temperature differential scanning calorimetry MDSC	610
340.15 K, Small sample (50 mg) DSC	594
343.15 K, modulated-temperature differential scanning calorimetry MDSC	610
343.16 K, Large sample (1 g) DSC	603
345.15 K, Small sample (50 mg) DSC	596
348.12 K, Large sample (1 g) DSC	603
348.15 K, modulated-temperature differential scanning calorimetry MDSC	616
350.15 K, Small sample (50 mg) DSC	600
353.14 K, Large sample (1 g) DSC	604
353.15 K, modulated-temperature differential scanning calorimetry MDSC	615
355.15 K, Small sample (50 mg) DSC	603
358.15 K, Large sample (1 g) DSC	609
358.15 K, modulated-temperature differential scanning calorimetry MDSC	621
360.15 K, Small sample (50 mg) DSC	605
363.15 K, modulated-temperature differential scanning calorimetry MDSC	624
363.17 K, Large sample (1 g) DSC	614
365.15 K, Small sample (50 mg) DSC	607
368.15 K, modulated-temperature differential scanning calorimetry MDSC	623
368.17 K, Large sample (1 g) DSC	617
370.15 K, Small sample (50 mg) DSC	610
373.15 K, modulated-temperature differential scanning calorimetry MDSC	628
373.16 K, Large sample (1 g) DSC	617
375.15 K, Small sample (50 mg) DSC	613
378.13 K, Large sample (1 g) DSC	618
378.15 K, modulated-temperature differential scanning calorimetry MDSC	628
380.15 K, Small sample (50 mg) DSC	616
383.14 K, Large sample (1 g) DSC	621
383.15 K, modulated-temperature differential scanning calorimetry MDSC	631
385.15 K, Small sample (50 mg) DSC	619
388.14 K, Large sample (1 g) DSC	623
388.15 K, modulated-temperature differential scanning calorimetry MDSC	635
390.15 K, Small sample (50 mg) DSC	622
393.14 K, Large sample (1 g) DSC	626
393.15 K, modulated-temperature differential scanning calorimetry MDSC	636
395.15 K, Small sample (50 mg) DSC	624
398.13 K, Large sample (1 g) DSC	630
398.15 K, modulated-temperature differential scanning calorimetry MDSC	636
400.15 K, Small sample (50 mg) DSC	627
403.15 K, modulated-temperature differential scanning calorimetry MDSC	640
403.17 K, Large sample (1 g) DSC	631
405.15 K, Small sample (50 mg) DSC	630
408.14 K, Large sample (1 g) DSC	632
408.15 K, modulated-temperature differential scanning calorimetry MDSC	642
410.15 K, Small sample (50 mg) DSC	633
413.15 K, modulated-temperature differential scanning calorimetry MDSC	644
413.16 K, Large sample (1 g) DSC	633
415.15 K, Small sample (50 mg) DSC	635
418.13 K, Large sample (1 g) DSC	636
418.15 K, modulated-temperature differential scanning calorimetry MDSC	645
420.15 K, Small sample (50 mg) DSC	639
423.15 K, Large sample (1 g) DSC	635
425.15 K, Small sample (50 mg) DSC	641

CCCCCCCCn1cc[n+](C)c1.O=S(=O)([O-])C(F)(F)F [1-octyl-3-methylimidazolium trifluoromethanesulfonate]
Settings	molar heat capacity at constant pressure [J/K/mol]
313.17 K, Large sample (1 g) DSC	588
315.15 K, Small sample (50 mg) DSC	604
318.14 K, Large sample (1 g) DSC	592
320.15 K, Small sample (50 mg) DSC	608
323.13 K, Large sample (1 g) DSC	595
325.15 K, Small sample (50 mg) DSC	612
328.13 K, Large sample (1 g) DSC	595
328.15 K, modulated-temperature differential scanning calorimetry MDSC	599
330.15 K, Small sample (50 mg) DSC	612
333.14 K, Large sample (1 g) DSC	595
333.15 K, modulated-temperature differential scanning calorimetry MDSC	603
335.15 K, Small sample (50 mg) DSC	616
338.14 K, Large sample (1 g) DSC	598
338.15 K, modulated-temperature differential scanning calorimetry MDSC	606
340.15 K, Small sample (50 mg) DSC	620
343.14 K, Large sample (1 g) DSC	599
343.15 K, modulated-temperature differential scanning calorimetry MDSC	609
345.15 K, Small sample (50 mg) DSC	623
348.15 K, modulated-temperature differential scanning calorimetry MDSC	612
348.17 K, Large sample (1 g) DSC	599
350.15 K, Small sample (50 mg) DSC	627
353.13 K, Large sample (1 g) DSC	601
353.15 K, modulated-temperature differential scanning calorimetry MDSC	616
355.15 K, Small sample (50 mg) DSC	631
358.15 K, Large sample (1 g) DSC	605
358.15 K, modulated-temperature differential scanning calorimetry MDSC	619
360.15 K, Small sample (50 mg) DSC	634
363.15 K, Large sample (1 g) DSC	610
363.15 K, modulated-temperature differential scanning calorimetry MDSC	622
365.15 K, Small sample (50 mg) DSC	637
368.15 K, Large sample (1 g) DSC	616
368.15 K, modulated-temperature differential scanning calorimetry MDSC	625
370.15 K, Small sample (50 mg) DSC	641
373.14 K, Large sample (1 g) DSC	617
373.15 K, modulated-temperature differential scanning calorimetry MDSC	628
375.15 K, Small sample (50 mg) DSC	644
378.12 K, Large sample (1 g) DSC	621
378.15 K, modulated-temperature differential scanning calorimetry MDSC	631
380.15 K, Small sample (50 mg) DSC	648
383.15 K, modulated-temperature differential scanning calorimetry MDSC	635
383.16 K, Large sample (1 g) DSC	626
385.15 K, Small sample (50 mg) DSC	652
388.15 K, Large sample (1 g) DSC	631
388.15 K, modulated-temperature differential scanning calorimetry MDSC	637
390.15 K, Small sample (50 mg) DSC	655
393.13 K, Large sample (1 g) DSC	636
393.15 K, modulated-temperature differential scanning calorimetry MDSC	640
395.15 K, Small sample (50 mg) DSC	658
398.15 K, modulated-temperature differential scanning calorimetry MDSC	642
398.17 K, Large sample (1 g) DSC	639
400.15 K, Small sample (50 mg) DSC	663
403.14 K, Large sample (1 g) DSC	642
403.15 K, modulated-temperature differential scanning calorimetry MDSC	645
405.15 K, Small sample (50 mg) DSC	666
408.15 K, modulated-temperature differential scanning calorimetry MDSC	648
408.18 K, Large sample (1 g) DSC	644
410.15 K, Small sample (50 mg) DSC	670
413.15 K, Large sample (1 g) DSC	647
413.15 K, modulated-temperature differential scanning calorimetry MDSC	651
415.15 K, Small sample (50 mg) DSC	673
418.18 K, Large sample (1 g) DSC	649
420.15 K, Small sample (50 mg) DSC	677
423.14 K, Large sample (1 g) DSC	651
425.15 K, Small sample (50 mg) DSC	680
